Measured values reported in US8785483B2, “Methods for treating COPD” (The Board of Regents of the University of Texas System, priority 2010, dated 2014).

Columns and labels:
SPDEF = assay: RT-PCR of SPDEF in IL-13-treated SAEC monolayer; assay type: cell-based, human; settings: SAEC monolayer at ALI, IL-13 18 h
Protocol: FIGS. 6A-6B. AR inhibition prevents IL-13-induced expression of Mucin and transcription factor SPDEF in airway epithelial cell monolayer. (A) The airway epithelial cell monolayer at ALI was serum starved without or with fidarestat and incubated with IL-13 for 18 h. Total RNA was isolated and subsequently RT-PCR was performed to assess the expression of Muc5AC and SPDEF. The bar diagrams show densitometric analysis of the corresponding blots (n=4). *p<0.001 vs Control; **p<0.001 vs IL-13; (B) The monolayer of ciliated airway cells at ALI was treated with AR inhibitor for 24 h and subsequently incubated with IL-13 for 24 or 48 h. At the end of incubation, cell lysate was prepared and subjected to western blotting using antibodies against Muc5AC, Muc5B, and SPDEF. The membranes were stripped and re-probed with antibodies against GAPDH to show the equal loading of protein. A representative blot is shown (n=4). *p<0.0001 vs Control; **p<0.001 vs IL-13.
For air-liquid interface (ALI) culture, SAEC were seeded at 8.5×10^4 cells/12-mm-diameter PET transparent insert with […] pores (12-well millicell culture insert; Millipore) and pre-coated with rat tail collagen type-1 (Sigma-Aldrich). The cells were grown submerged in the differentiation medium as described earlier by Zhen et al. (Am J Respir Cell Mol Biol 36: 244-253, 2007). […]

Muc5AC = Muc5AC ELISA in culture medium; assay type: cell-based, human; settings: airway epithelial monolayer, IL-13 48 h
Protocol: FIGS. 5A-5B. AR inhibition prevents IL-13-induced goblet cell metaplasia and expression of Muc5AC in airway epithelial monolayer. (A) The well-differentiated airway epithelial cells at air-liquid interface (ALI) were incubated with IL-13 for 48 h without or with AR inhibitor, fidarestat. The monolayer was fixed as described and immunohistochemistry using Muc5AC antibodies was performed on the sections. A representative photomicrograph is shown (n=4); magnification 400×. […] (C) The airway epithelial monolayer was incubated with IL-13 submerged in basal medium for 48 h in the absence and presence of AR inhibitor, fidarestat. The culture medium was collected from the top chamber and utilized for determination of Muc5AC by an ELISA, (n=4); *p<0.005 vs Control; **p<0.01 vs IL-13. For air-liquid interface (ALI) culture, SAEC were seeded at 8.5×10^4 cells/12-mm-diameter PET transparent insert with […] pores (12-well millicell culture insert; Millipore) and pre-coated with rat tail collagen type-1 (Sigma-Aldrich). The cells were grown submerged in the differentiation medium as described earlier by Zhen et al. (Am J Respir Cell Mol Biol 36: 244-253, 2007). […] Muc5AC levels in the culture medium were assessed by ELISA using commercially available human anti-Muc5AC ELISA essentially as described by the manufacturer (Cosmo Bio USA; Carlsbad, Calif.).

## NC(=O)[C@@H]1C[C@]2(NC(=O)NC2=O)c2cc(F)ccc2O1 [fidarestat, (2S,4S)-2-aminoformyl-6-fluoro-spiro[chroman-4,4′-imidazolidine]-2′,5′-dione]
SPDEF
  IL-13-induced SPDEF mRNA levels: decreased significantly
Muc5AC
  prevention of IL-13-induced secretion of Muc5AC in the medium: ~80%
